What was measured:
cruzain = cruzain (Trypanosoma cruzi, UniProt P25779); test: biochemical; conditions: for Cruzain 0’ Inhibition / Cruzain 10’ Inhibition: sheet "Screening results"
Procedure, shortened: (§1)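 Recombinant enzymes assayed by Z-Phe-Arg-AMC cleavage at 25 °C, fluorescence 340/440 nm over 5–7 min, with 10 min or no enzyme–compound preincubation.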

TbrCatL = target: T1, TbrCatL (Trypanosoma brucei rhodesiense, UniProt Q95PM0); test: TbrCatL enzymatic inhibition assay (cleavage of fluorogenic substrate Z-FR-AMC); format: biochemical; conditions: for TbrCatL 0’ Inhibition / TbrCatL 10’ Inhibition: sheet "Screening results"
T1 construct: Conor Caffrey (University of California San Diego)
T1 sequence (Q95PM0 entry or part of it): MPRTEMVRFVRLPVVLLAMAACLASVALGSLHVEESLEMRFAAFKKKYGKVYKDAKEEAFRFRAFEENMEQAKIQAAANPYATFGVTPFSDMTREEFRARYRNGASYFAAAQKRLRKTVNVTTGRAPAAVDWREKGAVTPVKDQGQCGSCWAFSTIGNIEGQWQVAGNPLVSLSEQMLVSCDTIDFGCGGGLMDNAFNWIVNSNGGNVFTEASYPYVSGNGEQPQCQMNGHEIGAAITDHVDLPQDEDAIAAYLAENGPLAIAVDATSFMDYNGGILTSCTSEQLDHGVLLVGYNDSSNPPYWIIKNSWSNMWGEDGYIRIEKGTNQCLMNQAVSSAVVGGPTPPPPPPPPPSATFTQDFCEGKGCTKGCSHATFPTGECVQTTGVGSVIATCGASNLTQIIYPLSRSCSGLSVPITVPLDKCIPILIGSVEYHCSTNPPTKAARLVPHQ
Procedure, shortened: as §1

[1] = 0’ (no pre-incubation), sheet Screening results
[2] = 10’ (pre-incubation), sheet Screening results
[3] = 0’ (pre-incubation time), Pathogen Box screening results
[4] = 10’ (pre-incubation time), Pathogen Box screening results
[5] = 5 µM, PB library solutions, 10 min pre-incubation, vs DMSO control

Sequence of cruzain (P25779 123-337 limits assumed): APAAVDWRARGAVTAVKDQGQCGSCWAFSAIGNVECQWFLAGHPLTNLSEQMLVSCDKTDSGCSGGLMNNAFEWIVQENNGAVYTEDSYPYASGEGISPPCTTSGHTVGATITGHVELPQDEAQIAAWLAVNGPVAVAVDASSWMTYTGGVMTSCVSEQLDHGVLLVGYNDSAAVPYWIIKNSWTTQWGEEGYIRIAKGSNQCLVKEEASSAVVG

Compound	Cruzain 0’ Inhibition (cruzain; 0’ (pre-incubation time)) [%]	Cruzain 10’ Inhibition (cruzain; 10’ (pre-incubation time)) [%]	TbrCatL 0’ Inhibition (TbrCatL; 0’ (pre-incubation time)) [%]	TbrCatL 10’ Inhibition (TbrCatL; 10’ (pre-incubation time)) [%]	Cruzain Inhibition 0’ (cruzain; [1]) [%]	Cruzain Inhibition 10’ (cruzain; [2]) [%]	TbrCatL Inhibition 0’ (TbrCatL; [1]) [%]	TbrCatL Inhibition 10’ (TbrCatL; [2]) [%]	also measured
NS(=O)(=O)c1cccc(-c2ccc3ncc(N4CCOCC4)nc3c2)c1 [MMV023860]	-5.3	28	-1.3	14	–	–	–	–	–
O=C(Nc1cccnc1)c1c(O)c2cccc3c2n(c1=O)CC3 [MMV676395]	–	–	–	–	10	8	17	19	–
O=C(Nc1n[nH]c(=S)s1)c1cc(Br)ccc1Cl [MMV676492]	–	–	–	–	–	–	–	–	Cruzain Inhibition 0’ (cruzain; [3]): 10%; Cruzain Inhibition 10’ (cruzain; [4]): 27%; TbrCatL Inhibition 0’ (TbrCatL; [3]): -16%; TbrCatL Inhibition 10’ (TbrCatL; [4]): 35%
COc1cccc(-n2nnnc2S(C)(=O)=O)c1 [MMV272144]	–	–	–	–	–	–	–	–	Cruzain Inhibition 0’ (cruzain; [3]): -1.3%; Cruzain Inhibition 10’ (cruzain; [4]): 11%; TbrCatL Inhibition 0’ (TbrCatL; [3]): -11%; TbrCatL Inhibition 10’ (TbrCatL; [4]): 9%
Nc1ncc(-c2ccc(C(F)(F)F)nc2)cc1-c1ccc(C(F)(F)F)nc1 [MMV668727]	–	–	–	–	11	-3	6.6	-4.6	–
CCC(Sc1nc2ccccc2o1)C(=O)Nc1nnc(C)s1 (stereo not drawn) [MMV611037]	0.2	4	6	5	–	–	–	–	–
CCNC(=O)C(C)Nc1nc(-c2cccnc2)nc2sc(C)c(C)c12 (stereo not drawn) [MMV1037162]	-0.8	1.7	6	-0.5	–	–	–	–	–
O=C(C1CCN(c2nnnn2-c2ccccc2)CC1)N1CCc2ccccc2C1 [MMV009135]	0.1	0.1	-1.2	6	–	–	–	–	–
O=C(C1CCN(c2nnc(-n3cccc3)s2)CC1)N1CCC(Cc2ccccc2)CC1 [MMV676478]	0.9	2.5	2.2	-8	–	–	–	–	–
O=C(Nc1nc(-c2ccccn2)cs1)c1cncn1-c1ccccc1 [MMV676512]	–	–	–	–	-27	-84	-27	-109	Increase in the initial velocity of the reaction (%) 5 µM using PB samples Cruzain (cruzain; [5]): 84 ± 54%; Increase in the initial velocity of the reaction (%) 5 µM using solid samples Cruzain (cruzain; 5 µM, solid samples, 10 min pre-incubation, vs DMSO control): 14 ± 9%; Increase in the initial velocity of the reaction (%) 100 µM using solid samples Cruzain (cruzain; 100 µM, solid samples, 10 min pre-incubation, vs DMSO control): 24 ± 5%; Increase in the enzyme velocity in confirmatory assays (cruzain; solid samples, varying compound concentrations): no increase in the enzyme velocity; Increase in the initial velocity of the reaction (%) 5 µM using PB samples TbrCatL (TbrCatL; [5]): 109 ± 71%; Increase in initial velocity of substrate cleavage in comparison to the DMSO control (TbrCatL; TbrCatL 10′ inc, screening at 5 µM): 2 fold
COC(=O)c1c(NC(=O)c2c(F)c(F)c(F)c(F)c2F)sc2c1CCCCC2 [MMV461553]	–	–	–	–	-34	-24	-16	9	–
Cc1ccc2[nH]c(C3CCCNC3)c(-c3ccncc3)c2c1 (stereo not drawn) [MMV024311]	-7.4	15	-12	12	–	–	–	–	–
FC(F)(F)c1cc(NCCc2ccccc2)nc(-c2ccccn2)n1 [MMV659010]	-2.5	6	8	9	–	–	–	–	–
CC(C)c1ncc(-c2ccncc2)c(C2CCC(CNC(=O)c3cccnc3)CC2)n1 (stereo not drawn) [MMV676442]	–	–	–	–	4	1.2	-7.5	-6	–
Cc1cc(Nc2ccc(C(F)(F)F)cc2)n2ccnc2n1 [MMV011229]	-0.9	1.4	-1	6	–	–	–	–	–
CN1CCC(c2cc(-c3ccncc3)c(-c3ccc(F)cc3)[nH]2)CC1 [MMV688703]	3.7	1.9	6	3.6	–	–	–	–	–
Cc1ccc(Oc2ccc(NC(=O)CNc3ccccc3N3CCCC3=O)cc2)cc1 [MMV020512]	–	–	–	–	0.2	8	-3.2	-0.2	–
CC(C)(C)n1nc(-c2ccccc2)c2c(N)ncnc21 [MMV688548]	–	–	–	–	8	10	20	12	–
CC[C@H](CO)NCCN[C@H](CC)CO [MMV687801]	–	–	–	–	-4.5	0.4	7	0.4	–
CCS(=O)(=O)N(Cc1ccco1)Cc1cc2ccc(C)cc2[nH]c1=O [MMV676398]	6.5	28	8	9	–	–	–	–	–
CN(C(=O)c1cc2c(-c3cncnc3)cccc2[nH]1)c1ccccc1 [MMV024443]	5	2.7	-4.6	-3.8	–	–	–	–	–

Compound	Cruzain 0’ Inhibition (cruzain; 0’ (pre-incubation time)) [%]	Cruzain 10’ Inhibition (cruzain; 10’ (pre-incubation time)) [%]	TbrCatL 0’ Inhibition (TbrCatL; 0’ (pre-incubation time)) [%]	TbrCatL 10’ Inhibition (TbrCatL; 10’ (pre-incubation time)) [%]	Cruzain Inhibition 0’ (cruzain; [1]) [%]	Cruzain Inhibition 10’ (cruzain; [2]) [%]	TbrCatL Inhibition 0’ (TbrCatL; [1]) [%]	TbrCatL Inhibition 10’ (TbrCatL; [2]) [%]	also measured
COc1cc(N[C@@H](C)CCCN)c2ncccc2c1 [MMV000023]	–	–	–	–	2.8	6.4	9	5	–
O=C(c1cc2ccccc2o1)N1CCN(Cc2ccc3c(c2)OCO3)CC1 [MMV676520]	–	–	–	–	-1.2	-3.3	5	-4.7	–
Cc1nc2ccccn2c1C(=O)NCc1ccc(Cl)cc1 [MMV012074]	–	–	–	–	25	12	-0.2	5.6	–
Nc1cccnc1Nc1ccc(Cl)cc1 [MMV676524]	4.7	13	11	11	–	–	–	–	–
O=C(Nc1ccccc1-c1nc2c(C(=O)O)cccc2o1)c1ccccc1 [MMV676162]	8	9	2.6	6	–	–	–	–	–
O=C(NCc1ccco1)N1CCN(Cc2ccc(Cl)s2)CC1 [MMV688555]	–	–	–	–	-0.7	0.5	6	0.9	–
Cc1cc(Cl)c(S(=O)(=O)N2CCCC2)cc1OCC(=O)NC1CCCCC1 [MMV006833]	3	8	1.6	11	–	–	–	–	–
Cc1cc(Cl)ccc1NC(=O)CCc1ccc(S(=O)(=O)NCC(C)C)cc1 [MMV161996]	–	–	–	–	–	–	–	–	Cruzain Inhibition 0’ (cruzain; [3]): -2.2%; Cruzain Inhibition 10’ (cruzain; [4]): 9%; TbrCatL Inhibition 0’ (TbrCatL; [3]): 15%; TbrCatL Inhibition 10’ (TbrCatL; [4]): 1.5%
O=[N+]([O-])c1cn2c(n1)OC[C@@H](OCc1ccc(OC(F)(F)F)cc1)C2 [MMV688755]	–	–	–	–	–	–	–	–	Cruzain Inhibition 0’ (cruzain; [3]): 3%; Cruzain Inhibition 10’ (cruzain; [4]): 6.6%; TbrCatL Inhibition 0’ (TbrCatL; [3]): -0.5%; TbrCatL Inhibition 10’ (TbrCatL; [4]): 4%
CCOc1ccc(OCC(=O)Nc2cc(C)cc(C)c2)cc1 [MMV676470]	6	9	-0.9	4	–	–	–	–	–
CC(=O)NCC1CN(c2ccc(-c3ccc(CO)cc3)c(F)c2)C(=O)O1 (stereo not drawn) [MMV688508]	–	–	–	–	-0.1	-2	-0.7	-5	–
C[C@H]1COc2c(N3CCN(C)CC3)c(F)cc3c(=O)c(C(=O)O)cn1c23 [MMV687798]	4.7	6	-4.6	-1.6	–	–	–	–	–
CC(=O)Nc1ccc(NC(=O)c2cc(-c3cc(Cl)ccc3O)n[nH]2)cc1 [MMV676380]	–	–	–	–	0.6	-0.9	-5	-3	–
Cc1ccc(S(=O)(=O)Nc2ccc(CN3CCN(C(=O)c4cccc(C#N)c4)CC3)cc2)cc1 [MMV689028]	–	–	–	–	-0.6	8	-0.6	-0.3	–
N=C(N)c1ccc(-c2cc(-c3ccccc3)on2)cc1 [MMV688514]	–	–	–	–	14	13	20	-6.6	–
Cc1cc(C)cc(COc2ccc3c(C)c(CCC(=O)O)c(=O)oc3c2C)c1 [MMV676476]	–	–	–	–	1.9	-3.3	-17	-2.6	–
c1ccc(Oc2ccc(-c3cncc(-c4ccc5[nH]ccc5c4)n3)cc2)cc1 [MMV688178]	-6	-6	-10	-21	–	–	–	–	–
O[C@@H](c1cc(C(F)(F)F)nc2c(C(F)(F)F)cccc12)[C@H]1CCCCN1 [MMV000016]	–	–	–	–	-5.4	-9	2.4	-2.6	–
CCOC(=O)c1cc(-c2csc(Nc3c(C)cc(C)cc3C)n2)on1 [MMV676461]	–	–	–	–	-2.6	4	6	15	–
Cc1ccc2nc(Cl)c(CNCc3cccs3)cc2c1 [MMV676439]	–	–	–	–	-0.1	6.5	5.4	5	–
CC(=O)Oc1ccccc1C(=O)Nc1ncc([N+](=O)[O-])s1 [MMV688991]	–	–	–	–	8	4	10	3.7	–
